Literature values, collected in patent publication US20070219127A1, “CYCLOSPORIN A COMPOSITIONS” (priority 2006, published 2007).

| SMILES | systemically administered elimination half-life |
| --- | --- |
| FC1(F)C(F)(F)C(F)(F)C2(F)C(F)(C1(F)F)C(F)(F)C(F)(F)C1(F)C(F)(F)C(F)(F)C(F)(F)C(F)(F)C12F (centres unmarked) [PPP, perfluoroperhydrophenanthrene] | about 7 days |
| FC1(F)C(F)(F)C(F)(F)C2(F)C(F)(F)C(F)(F)C(F)(F)C(F)(F)C2(F)C1(F)F (centres unmarked) [PFD, Perfluoro (decahydronaphthalene)] | about 7 days |
